Source: ChEMBL document CHEMBL1671861, “Preclinical evaluation of 1H-benzylindole derivatives as novel human immunodeficiency virus integrase strand transfer inhibitors” (Antimicrob Agents Chemother, 2008)
Active and inactive are the calls of the source. The calls are words filed in the database; no cut-off is given here.

Experiments:
[1] = system: Human immunodeficiency virus 2; test: Antiretroviral activity against Human immunodeficiency virus 2 EHO infected in human MT4 cells assessed as inhibition of virus-induced cytopathic effect by MTT assay; assay type: functional, organism-based
[2] = system: Human immunodeficiency virus 1; test: Antiviral activity against Protease inhibitor-resistant Human immunodeficiency virus 1 infected in human MT4 cells assessed as inhibition of virus-induced cytopathic effect by MTT assay; assay type: functional, organism-based; details: Human immunodeficiency virus 1, MT4
[3] = system: Human immunodeficiency virus 1; test: Antiviral activity against Reverse transcriptase inhibitor-resistant Human immunodeficiency virus 1 infected in human MT4 cells assessed as inhibition of virus-induced cytopathic effect by MTT assay; assay type: functional, organism-based; details: Human immunodeficiency virus 1, MT4
[4] = system: Human immunodeficiency virus 1; test: Antiretroviral activity against Human immunodeficiency virus 1 NL4.3 infected in human MT4 cells assessed as inhibition of virus-induced cytopathic effect by MTT assay; assay type: functional, organism-based; details: Human immunodeficiency virus 1, NL4.3, MT4
[5] = system: Human immunodeficiency virus 1; test: Antiviral activity against non nucleoside reverse transcriptase inhibitor-resistant Human immunodeficiency virus 1 infected in human MT4 cells assessed as inhibition of virus-induced cytopathic effect by MTT assay; assay type: functional, organism-based; details: Human immunodeficiency virus 1, MT4
[6] = system: Human immunodeficiency virus 1; test: Antiretroviral activity against Human immunodeficiency virus 1 3B infected in human MT4 cells assessed as inhibition of virus-induced cytopathic effect by MTT assay; assay type: functional, organism-based
[7] = system: Human immunodeficiency virus 2; test: Antiretroviral activity against Human immunodeficiency virus 2 ROD infected in human MT4 cells assessed as inhibition of virus-induced cytopathic effect by MTT assay; assay type: functional, organism-based; details: Human immunodeficiency virus 2, ISOLATE ROD
[8] = system: Simian immunodeficiency virus; test: Antiretroviral activity against Simian immunodeficiency virus MAC 251 infected in human MT4 cells assessed as inhibition of virus-induced cytopathic effect by MTT assay; assay type: functional, organism-based; details: MAC 251, MT4
[9] = Selectivity index, ratio of CC50 for human MT4 cells to EC50 for Human immunodeficiency virus 1 3B; assay type: toxicity, cell-based; details: read-out: Ratio CC50/EC50
[10] = Cytotoxicity against human MT4 cells by MTT assay; assay type: cell-based
[11] = system: Human immunodeficiency virus 1; test: Antiviral activity against Human immunodeficiency virus 1 3B infected in human MT4 cells assessed as inhibition of viral replication; assay type: functional, organism-based
[12] = molecular target: T1, Human immunodeficiency virus type 1 integrase (Human immunodeficiency virus 1, UniProt Q7ZJM1); test: Inhibition of Human immunodeficiency virus 1 integrase
T1 sequence (Q7ZJM1 whole entry): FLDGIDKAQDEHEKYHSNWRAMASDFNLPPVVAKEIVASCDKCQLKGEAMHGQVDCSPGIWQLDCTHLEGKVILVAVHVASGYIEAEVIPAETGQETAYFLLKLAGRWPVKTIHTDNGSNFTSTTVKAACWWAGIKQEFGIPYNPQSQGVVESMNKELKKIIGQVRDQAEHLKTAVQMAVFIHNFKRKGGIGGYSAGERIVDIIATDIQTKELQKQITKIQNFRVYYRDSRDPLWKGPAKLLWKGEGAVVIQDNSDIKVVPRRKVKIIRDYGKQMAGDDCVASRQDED

[13] = molecular target: T1, Human immunodeficiency virus type 1 integrase; test: Inhibition of Human immunodeficiency virus 1 integrase strand transfer activity
[14] = system: Human immunodeficiency virus 1; test: Antiviral activity against Human immunodeficiency virus 1 infected in 293T cells assessed as increase in amount of 2-LTR circles by Q-PCR in presence of 12.2 uM CHI/1043; assay type: functional, organism-based
[15] = Apparent permeability from apical to basolateral side of human Caco2 cells; assay type: ADME, cell-based; details: Caco-2
[16] = system: Human immunodeficiency virus 1; test: Antiviral activity against R5 tropic Human immunodeficiency virus 1 BAL infected in PMBC; assay type: functional, organism-based
[17] = system: Human immunodeficiency virus 1; test: Antiviral activity against Human immunodeficiency virus 1 during lentiviral transduction process assessed as inhibition of early cDNA synthesis by Lentiviral vector transduction assay; assay type: functional, organism-based
[18] = system: Human immunodeficiency virus 1; test: Antiviral activity against Human immunodeficiency virus 1 infected in 293T cells assessed as integrated proximal DNA by Q-PCR; assay type: functional, organism-based
[19] = system: Human immunodeficiency virus 1; test: Ratio of EC50 for Human immunodeficiency virus 1 3B after 70 passages to EC50 for wild-type Human immunodeficiency virus 1 3B; assay type: functional
[20] = system: Human immunodeficiency virus 1; test: Antiviral activity against X4 tropic Human immunodeficiency virus 1 3B infected in PMBC; assay type: functional, organism-based
[21] = system: Human immunodeficiency virus 1; test: Antiviral activity against Human immunodeficiency virus 1 infected in 293T cells assessed as inhibition of early cDNA synthesis by Lentiviral vector transduction assay; assay type: functional, organism-based
[22] = Intrinsic clearance in human liver microsome; assay type: ADME; details: liver microsomes

Cc1c(O)cccc1C(=O)N[C@@H](CSc1ccccc1)[C@H](O)CN1C[C@H]2CCCC[C@H]2C[C@H]1C(=O)NC(C)(C)C
EC50 [1]: 49 nM | EC50 [2]: 170 nM | EC50 [3]: 29 nM | EC50 [4]: 23 nM | EC50 [5]: 35 nM | EC50 [6]: 28 nM | EC50 [7]: 50 nM | EC50 [8]: 50 nM

O=C(O)C(=O)CC(=O)c1cc(OCc2ccccc2)cc(OCc2ccccc2)c1
selectivity ratio [9]: 5 | EC50 [2]: 7400 nM | CC50 [10]: 62000 nM | EC50 [3]: 7200 nM | EC50 [4]: 24500 nM | EC50 [5]: 19300 nM | EC50 [6]: 12400 nM | EC50 [11]: 12400 nM | EC50 [7]: 62100 nM | EC50 [8]: 22600 nM

COc1cccc2c(C(=O)/C=C(\O)C(=O)O)cn(Cc3ccc(F)cc3)c12
selectivity ratio [9]: 12

CCOC(=O)/C(O)=C/C(=O)c1cn(Cc2ccc(F)cc2)c2cc(OC)ccc12
selectivity ratio [9]: < 1

CCOC(=O)/C(O)=C/C(=O)c1cn(Cc2ccc(F)cc2)c2c(OC)ccc(OC)c12
selectivity ratio [9]: 20

O=C(O)/C(O)=C/C(=O)c1cn(Cc2ccccc2)c2ccccc12
selectivity ratio [9]: 8 | IC50 [12]: 860 nM | CC50 [10]: 64100 nM | EC50 [11]: 8350 nM | IC50 [13]: 2330 nM

COc1ccc2c(c1)c(C(=O)/C=C(\O)C(=O)O)cn2Cc1ccc(F)cc1
selectivity ratio [9]: 12

Cc1cn([C@H]2C[C@H](N=[N+]=[N-])[C@@H](CO)O2)c(=O)[nH]c1=O [ZIDOVUDINE]
EC50 [1]: 56 nM | EC50 [2]: 26 nM | EC50 [3]: 200 nM | EC50 [4]: 21 nM | EC50 [5]: 20 nM | EC50 [6]: 27 nM | EC50 [7]: 67 nM | EC50 [8]: 11 nM

O=C1Nc2ccc(Cl)cc2[C@@](C#CC2CC2)(C(F)(F)F)O1 [EFAVIRENZ]
EC50 [1]: > 31700 nM | EC50 [7]: > 31700 nM | EC50 [8]: > 31700 nM

CCOC(=O)/C(O)=C/C(=O)c1cn(Cc2ccc(F)cc2)c2c(OC)cccc12
selectivity ratio [9]: 1

CCOC(=O)/C(O)=C/C(=O)c1cn(Cc2ccc(F)cc2)c2ccc(OC)cc12
selectivity ratio [9]: 11

COc1ccc2c(C(=O)/C=C(\O)C(=O)O)cn(Cc3ccc(F)cc3)c2c1
selectivity ratio [9]: 8

CCOC(=O)/C(O)=C/C(=O)c1cn(Cc2ccc(F)cc2)c2cccc(OC)c12
selectivity ratio [9]: 24

COc1ccc(OC)c2c1c(C(=O)/C=C(\O)C(=O)O)cn2Cc1ccc(F)cc1
selectivity ratio [9]: 100

COc1cc2c(cc1Cc1cccc(Cl)c1F)c(=O)c(C(=O)O)cn2[C@H](CO)C(C)C
EC50 [11]: 0.83 nM

COc1cccc2c1c(C(=O)/C=C(\O)C(=O)O)cn2Cc1ccc(F)cc1
EC50 [1]: 1760 nM | inhibition [14]: inactive | Papp A→B [15]: 5.5 ×10⁻⁶ cm/s | selectivity ratio [9]: 69.8 | EC50 [16]: 300 nM | IC50 [12]: 110 nM | EC50 [2]: 680 nM | EC50 [3]: 860 nM | EC50 [4]: 730 nM | EC50 [5]: 840 nM | inhibition [17]: inactive | inhibition [18]: inactive | Ratio EC50 [19]: >40 | EC50 [20]: 300 nM | inhibition [21]: Active | EC50 [6]: 600 nM | EC50 [11]: 600 nM | microsomal CLint [22]: 11 µL/min/mg | EC50 [7]: 2110 nM | EC50 [8]: 4760 nM

O=C(NCc1ccc(F)cc1)c1nc(N2CCCCS2(=O)=O)c2cccnc2c1O
selectivity ratio [9]: 460 | IC50 [12]: 2.3 nM | CC50 [10]: 2250 nM | EC50 [11]: 4.9 nM | IC50 [13]: 7 nM

Cc1nnc(C(=O)NC(C)(C)c2nc(C(=O)NCc3ccc(F)cc3)c(O)c(=O)n2C)o1
EC50 [11]: 1.4 nM
